The values below come from ChEMBL document CHEMBL3508693 (2016).

In data set [1] the target is CYP2C19 (Homo sapiens, UniProt P33261). Kind of data set: Inhibitory activity of 20 uM SPP100 on 1131 Pmoles of cDNA-derived CYP2C19 enzyme in microsome prepared from human lymphoblastoid cell line. The class given is ADME, microsomes. Also noted: conc 20 uM, interact cpd conc 50 uM. The note with it: probe (S)-mephenytoin.
The target in data set [2] is T1, CYP2C9 (Homo sapiens, UniProt P11712). Kind of data set: Inhibitory activity of 200 uM SPP100 on 220 Pmoles of cDNA-derived CYP2C9 enzyme in microsome prepared from human lymphoblastoid cell line. The class given is ADME, microsomes. Also on record: conc 200 uM, interact cpd conc 6 uM. The note with it: probe diclofenac.
Data set [3] in a line: Excretion (0-72h) of aliskiren in faeces following intravenous administration of [14C] aliskiren hemifumarate at 1 mg.Kg-1 level in marmoset. The class given is ADME, organism-based, Callithrix jacchus, Feces. The note with it: in vivo.
For data set [4], the target named is T1, CYP2C9. Kind of data set: Inhibitory activity of 20 uM SPP100 on 259 Pmoles of cDNA-derived CYP2C9 enzyme in microsome prepared from human lymphoblastoid cell line. The class given is ADME, microsomes. Also on record: conc 20 uM, interact cpd conc 6 uM. As to conditions: probe diclofenac.
A short description of data set [5]: Excretion of radioactivity (0-24h) in urine following single oral dose of 100 mg.Kg-1 [14C] aliskiren hemifumarate in rat. The class given is ADME, organism-based, Albino HAN:WIST. The note with it: in vivo.
Data set [6] in a line: Excretion of radioactivity (24-48h) in faeces following single oral dose of 500 mg.Kg-1 [14C] aliskiren hemifumarate in mouse. As to conditions: in vivo. The class given is ADME, organism-based, TgRasH2, Feces.
Data set [7] concerns the target Cytochrome P450 2D6 (Homo sapiens, UniProt P10635). Kind of data set: Metabolic clearance (ul.min.nmol-1 CYP) of aliskiren hemifumarate for CYP2D6 was determined in human liver microsome incubated with [14C]SPP100 hemifumarate. The class given is ADME. The note with it: microsomes. On the technique in general: Liver microsomes are a subcellular fraction often used to study metabolism.

Data set [8] in a line: Tmax of radioactivity following repeated oral administration of [14C] aliskiren hemifumarate at 100 mg.Kg-1 level studied after 2h of dosing on day 10 in rat. The class given is ADME, organism-based, Albino HAN:WIST. As to conditions: in vivo.
A short description of data set [9]: % of radioactivity (48h) recovered in gastrointestinal tract of receiver rat following duodenal infusion of radioactivity through bile from donor rat treated with single intravenous administration of 10 mg.Kg-1 [14C] aliskiren hemifumarate. The note with it: in vivo. The class given is ADME, organism-based, HAN:WIST(SPF).
A short description of data set [10]: Mean excretion of radioactivity (72-96h) in urine and faeces following single intravenous dose of 10 mg.Kg-1 [14C] aliskiren hemifumarate in rat. The class given is ADME, organism-based, Albino HAN:WIST, Urine/Feces. The note with it: in vivo.
Data set [11] can be described thus: AUC/dose (0-168h) of total radioactivity following single oral administration of [14C] aliskiren hemifumarate at 3 mg.Kg-1 level in marmoset. The class given is ADME, organism-based, Callithrix jacchus, Plasma. As to conditions: in vivo.
The nature of data set [12]: AUC/dose (0-96h) of total radioactivity following oral administration of [14C] aliskiren hemifumarate at 100 mg.Kg-1 level in rat. The note with it: in vivo. The class given is ADME, organism-based, Albino HAN:WIST, Plasma.
Data set [13] is described as follows: % of radioactivity (24h) recovered in faeces following single intravenous administration of 10 mg.Kg-1 [14C] aliskiren hemifumarate in male rat. The class given is ADME, organism-based, HAN:WIST(SPF), Feces. As to conditions: in vivo.
The nature of data set [14]: Cmax normalised (0-168h) of total radioactivity following single intravenous administration of [14C] aliskiren hemifumarate at 1 mg.Kg-1 level in marmoset. The class given is ADME, organism-based, Callithrix jacchus, Plasma. The note with it: in vivo.
A short description of data set [15]: Excretion (168h) of radioactivity in urine following intravenous administration of [14C] aliskiren hemifumarate at 10 mg.Kg-1 level in rat. The class given is ADME, organism-based, Lister-Hooded. As to conditions: in vivo.
Data set [16] concerns the target T2, Cytochrome P450 2J2 (Homo sapiens, UniProt P51589).
T2 sequence (P51589 whole entry): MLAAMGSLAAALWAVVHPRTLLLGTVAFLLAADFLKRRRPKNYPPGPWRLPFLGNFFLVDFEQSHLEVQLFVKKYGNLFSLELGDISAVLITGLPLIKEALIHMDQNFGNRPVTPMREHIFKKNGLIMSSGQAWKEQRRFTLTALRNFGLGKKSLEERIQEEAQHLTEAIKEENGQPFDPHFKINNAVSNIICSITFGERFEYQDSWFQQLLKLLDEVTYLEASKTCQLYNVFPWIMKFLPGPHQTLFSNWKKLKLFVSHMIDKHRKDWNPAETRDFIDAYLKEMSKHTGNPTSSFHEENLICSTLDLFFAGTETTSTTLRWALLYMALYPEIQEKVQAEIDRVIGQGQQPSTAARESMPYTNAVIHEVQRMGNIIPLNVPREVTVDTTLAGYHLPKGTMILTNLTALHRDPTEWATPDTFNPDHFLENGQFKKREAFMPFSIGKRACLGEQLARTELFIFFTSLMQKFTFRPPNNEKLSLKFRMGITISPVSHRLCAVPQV
Nature of the data set: Metabolic clearance (ul.min.nmol-1 CYP) of aliskiren hemifumarate for CYP2J2 was determined in human liver microsome incubated with [14C]SPP100 hemifumarate. The class given is ADME. As to conditions: microsomes.

Data set [17] is described as follows: Excretion (0-96h) of 14C-radioactivity in urine following single oral dose of 300 mg [14C]SPP100 studied in healthy men. The class given is ADME, organism-based. As to conditions: human, in vivo, at 300 mg.
Data set [18] in a line: Plasma clearance (0-96h) of total radioactivity following oral administration of [14C] aliskiren hemifumarate at 100 mg.Kg-1 level in rat. The class given is ADME, organism-based, Albino HAN:WIST. The note with it: in vivo, iv.
Data set [19] in a line: AUC/dose (0-96h) of unlabeled aliskiren hemifumarate following oral administration of aliskiren hemifumarate at 100 mg.Kg-1 level in rat. The class given is ADME, organism-based, Albino HAN:WIST, Plasma. The note with it: in vivo.
Data set [20] in a line: AUC (0-24h)/dose of aliskiren hemifumarate following 4 week oral dietary dosing of aliskiren hemifumarate at 1000 mg.Kg-1 level in female mouse. The class given is ADME, organism-based, CB6F1-TGrasH2, Plasma. As to conditions: in vivo.
Data set [21] can be described thus: Cmax of aliskiren hemifumarate following 2 week oral dosing of aliskiren hemifumarate at 50 mg.Kg-1 level studied on day 1 in female Callithrix jacchus. The class given is ADME, organism-based. The note with it: marmoset, plasma.
A short description of data set [22]: AUC of aliskiren hemifumarate following 8 day once-daily dosing of SPP100B oral solution at 80 mg level studied on day 8 in men. The class given is ADME, organism-based. As to conditions: male, human, plasma.
The nature of data set [23]: Cmax of aliskiren hemifumarate following 4 week oral dietary dosing of aliskiren hemifumarate at 500 mg.Kg-1 level in female mouse. The class given is ADME, organism-based. The note with it: CB6F1-TGrasH2, mouse, in vivo.
Data set [24] in a line: AUC infinity of aliskiren hemifumarate following 2 week oral dosing of aliskiren hemifumarate at 100 mg.Kg-1 level studied on day 1 in male Callithrix jacchus. The class given is ADME, organism-based. The note with it: marmoset, plasma, read-out: AUC infinity.
A short description of data set [25]: AUC (0-24h) of aliskiren hemifumarate following 4 week oral dietary dosing of aliskiren hemifumarate at 1000 mg.Kg-1 level in male mouse. As to conditions: CB6F1-TGrasH2, mouse, plasma. The class given is ADME, organism-based.
Data set [26] can be described thus: AUC(0-24h) of aliskiren hemifumarate following 2 week oral dosing of aliskiren hemifumarate at 100 mg.Kg-1 level studied on day 1 in male Callithrix jacchus. The class given is ADME, organism-based. The note with it: marmoset, plasma.
Data set [27] is described as follows: Tmax of aliskiren hemifumarate following 8 day once-daily dosing of SPP100B oral solution at 80 mg level studied on day 8 in men. As to conditions: male, human, plasma. The class given is ADME, organism-based.
Data set [28] is described as follows: AUC(0-24h) of aliskiren hemifumarate following 2 week oral dosing of aliskiren hemifumarate at 100 mg.Kg-1 level studied on day 14 in male Callithrix jacchus. The class given is ADME, organism-based. As to conditions: marmoset, plasma.
Data set [29] can be described thus: Tmax of aliskiren hemifumarate following repeated oral administration of [14C] aliskiren hemifumarate at 100 mg.Kg-1 level studied after 2h of dosing on day 10 in rat. The class given is ADME, organism-based, Albino HAN:WIST. As to conditions: in vivo.
Data set [30] is described as follows: Effect of 4 week oral dietary dosing of aliskiren hemifumarate at 1000 mg.Kg-1 level on spermatogenesis in male mouse. The class given is toxicity, organism-based, CB6F1-TGrasH2, Testis. As to conditions: in vivo, 672 h.
Data set [31] in a line: Effect of 4 week oral dietary dosing of aliskiren hemifumarate at 1500 mg.Kg-1 level on spermatogenesis in male mouse. The class given is toxicity, organism-based, CB6F1-TGrasH2, Testis. The note with it: in vivo, 672 h.

T1 sequence (P11712 whole entry): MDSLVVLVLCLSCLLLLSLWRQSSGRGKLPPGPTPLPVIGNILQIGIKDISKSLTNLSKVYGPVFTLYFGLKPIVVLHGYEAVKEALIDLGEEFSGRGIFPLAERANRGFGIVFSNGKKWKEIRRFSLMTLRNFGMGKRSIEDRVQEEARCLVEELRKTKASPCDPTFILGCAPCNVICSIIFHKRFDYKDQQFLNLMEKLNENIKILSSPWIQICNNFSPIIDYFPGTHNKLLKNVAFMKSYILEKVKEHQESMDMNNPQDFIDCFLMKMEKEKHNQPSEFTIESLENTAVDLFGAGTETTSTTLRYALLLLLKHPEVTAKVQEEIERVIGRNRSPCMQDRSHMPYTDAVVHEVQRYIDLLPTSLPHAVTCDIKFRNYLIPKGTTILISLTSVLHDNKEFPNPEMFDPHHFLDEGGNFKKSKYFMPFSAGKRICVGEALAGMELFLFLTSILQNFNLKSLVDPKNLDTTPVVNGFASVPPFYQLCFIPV
Sequence of CYP2C19 (P33261 whole entry): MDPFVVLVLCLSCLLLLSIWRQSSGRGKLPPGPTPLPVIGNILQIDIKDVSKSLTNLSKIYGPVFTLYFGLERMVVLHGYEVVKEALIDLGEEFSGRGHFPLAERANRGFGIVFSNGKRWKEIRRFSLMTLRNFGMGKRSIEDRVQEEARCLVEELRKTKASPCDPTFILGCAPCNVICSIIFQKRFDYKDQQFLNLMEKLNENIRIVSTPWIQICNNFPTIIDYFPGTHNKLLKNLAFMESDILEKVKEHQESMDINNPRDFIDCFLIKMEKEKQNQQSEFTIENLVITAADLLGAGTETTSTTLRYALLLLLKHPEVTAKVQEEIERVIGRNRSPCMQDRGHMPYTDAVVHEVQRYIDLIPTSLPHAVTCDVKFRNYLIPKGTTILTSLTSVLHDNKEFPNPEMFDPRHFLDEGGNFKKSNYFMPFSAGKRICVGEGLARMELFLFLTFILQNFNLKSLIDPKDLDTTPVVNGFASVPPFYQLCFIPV
Sequence of Cytochrome P450 2D6 (P10635 whole entry): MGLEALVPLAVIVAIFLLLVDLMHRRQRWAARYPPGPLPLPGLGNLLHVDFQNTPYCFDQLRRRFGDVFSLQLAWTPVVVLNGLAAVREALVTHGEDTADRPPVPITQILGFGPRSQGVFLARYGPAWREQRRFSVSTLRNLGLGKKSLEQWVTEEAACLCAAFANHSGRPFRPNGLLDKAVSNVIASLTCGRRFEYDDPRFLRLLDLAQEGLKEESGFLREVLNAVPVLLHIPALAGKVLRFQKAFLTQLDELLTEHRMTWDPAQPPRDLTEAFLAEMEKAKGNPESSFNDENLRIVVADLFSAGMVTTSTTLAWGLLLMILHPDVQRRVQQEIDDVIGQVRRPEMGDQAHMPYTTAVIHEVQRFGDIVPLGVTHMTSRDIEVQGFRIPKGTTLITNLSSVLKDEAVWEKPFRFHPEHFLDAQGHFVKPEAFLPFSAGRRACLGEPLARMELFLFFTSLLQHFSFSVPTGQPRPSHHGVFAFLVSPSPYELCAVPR

The term inhibition denotes how much of the control response was suppressed. As for `COCCCOc1cc(C[C@@H](C[C@H](N)[C@@H](O)C[C@H](C(=O)NCC(C)(C)C(N)=O)C(C)C)C(C)C)ccc1OC`, the inhibition at 20 µM turned out to be 5.1% in data set [1] and 0.9% in data set [4]. The inhibition at 200 µM in [2] came to 15.8%. The same molecule registered a Compound recovery in data set [3] of 36%.

Consider `COCCCOc1cc(C[C@@H](C[C@H](N)[C@@H](O)C[C@H](C(=O)NCC([14CH3])([14CH3])C(N)=O)C(C)C)C(C)C)ccc1OC.O=C(O)/C=C/C(=O)O`, for which the Radiolabel recovery came to 0.47% in data set [5]; 1.82% in data set [6]; 59.8% in data set [9]; 2.24% in [10]; 4.6% in [13]; 10.4% in [15]. For the same molecule, the Radiolabel recovery in data set [17] worked out at 0.57%. The CL worked out at 74.4 µL·min/nmol in [7] and 10.6 µL·min/nmol in [16]. Also, the “Tmax(10)” value in data set [8] is 218 h. In addition, the AUC normalised in data set [11] is given as 1.61 (umol.h/L)/(mg/kg); in data set [12], 0.054 (umol.h/L)/(mg/kg); in [12] (iv, 10 mg/kg) it was 0.81 (umol.h/L)/(mg/kg). Moreover, in data set [14], the Cmax normalised is reported as 11.42 (umol/L)/(mg/kg). The Plasma clearance in data set [18] was determined as 1.28 L·h/kg.

Broadly, the Cmax is the peak of the concentration-time curve. In general, AUC refers to concentration integrated over time. High values mean more exposure, low ones less exposure. Usually AUC(0-t) stands for exposure summed from dosing to a finite time, without extrapolation to infinity. Read a low AUC(0-t) as low exposure. As a reminder, the Tmax is the time at which the peak concentration occurs. For `COCCCOc1cc(C[C@@H](C[C@H](N)[C@@H](O)C[C@H](C(=O)NCC(C)(C)C(N)=O)C(C)C)C(C)C)ccc1OC.COCCCOc1cc(C[C@@H](C[C@H](N)[C@@H](O)C[C@H](C(=O)NCC(C)(C)C(N)=O)C(C)C)C(C)C)ccc1OC.O=C(O)/C=C/C(=O)O` [ALISKIREN FUMARATE], the AUC normalised was 0.03 (umol.h/L)/(mg/kg) in [19] and 2.28 ((ng/mL).hours)/(mg/kg/day) in data set [20]. Besides, the figures for the Cmax in data set [21] and in [23] were 8830 ng/mL and 63.8 ng/mL, respectively. The molecule further had an AUC at 192 h in data set [22] of 137 ng·h/mL. Besides, the AUC(0-inf) in data set [24] was 103 µg·h/mL. The AUC(0-t) at 24 h was determined as 4820 ng·h/mL in [25] and 76400 ng·h/mL in data set [26]. Also, in data set [27], the Tmax stood at 1.8 h. In addition, in data set [28], the exposure (AUC) at 24 h was 109 µg·h/mL. Moreover, in data set [29], the “Tmax(10)” value turned out to be 218 h. Also, the Change in spermatogenesis entry in data set [30] and in [31] was “OUTCOME = No abnormalities. No animals died during the study” in each case.
